Results taken from ChEMBL document CHEMBL5096221, “Discovery of a Highly Potent and Orally Bioavailable STAT3 Dual Phosphorylation Inhibitor for Pancreatic Cancer Treatment” (J Med Chem, 2022).

Assays:
[1] = target: Signal transducer and activator of transcription 3 (Homo sapiens, UniProt P40763); test: Inhibition of STAT3 in human HEK293T cells assessed as inhibition of IL-6 stimulated STAT3 phosphorylation by dual-luciferase reporter assay; assay type: cell-based
[2] = Inhibition of ATP production in human BXPC-3 cells incubated for 20 to 24 hrs by ATP assay kit method; assay type: functional, cell-based
BXPC-3 = test: Anti-proliferative activity against human BXPC-3 cells assessed as cell growth inhibition incubated for 72 hrs by MTS assay; assay type: functional, cell-based; settings: BXPC-3, 72 h
Capan-2 = test: Anti-proliferative activity against human Capan-2 cells assessed as cell growth inhibition incubated for 72 hrs by MTS assay; assay type: functional, cell-based; settings: Capan-2, 72 h

Signal transducer and activator of transcription 3, sequence (P40763 whole entry): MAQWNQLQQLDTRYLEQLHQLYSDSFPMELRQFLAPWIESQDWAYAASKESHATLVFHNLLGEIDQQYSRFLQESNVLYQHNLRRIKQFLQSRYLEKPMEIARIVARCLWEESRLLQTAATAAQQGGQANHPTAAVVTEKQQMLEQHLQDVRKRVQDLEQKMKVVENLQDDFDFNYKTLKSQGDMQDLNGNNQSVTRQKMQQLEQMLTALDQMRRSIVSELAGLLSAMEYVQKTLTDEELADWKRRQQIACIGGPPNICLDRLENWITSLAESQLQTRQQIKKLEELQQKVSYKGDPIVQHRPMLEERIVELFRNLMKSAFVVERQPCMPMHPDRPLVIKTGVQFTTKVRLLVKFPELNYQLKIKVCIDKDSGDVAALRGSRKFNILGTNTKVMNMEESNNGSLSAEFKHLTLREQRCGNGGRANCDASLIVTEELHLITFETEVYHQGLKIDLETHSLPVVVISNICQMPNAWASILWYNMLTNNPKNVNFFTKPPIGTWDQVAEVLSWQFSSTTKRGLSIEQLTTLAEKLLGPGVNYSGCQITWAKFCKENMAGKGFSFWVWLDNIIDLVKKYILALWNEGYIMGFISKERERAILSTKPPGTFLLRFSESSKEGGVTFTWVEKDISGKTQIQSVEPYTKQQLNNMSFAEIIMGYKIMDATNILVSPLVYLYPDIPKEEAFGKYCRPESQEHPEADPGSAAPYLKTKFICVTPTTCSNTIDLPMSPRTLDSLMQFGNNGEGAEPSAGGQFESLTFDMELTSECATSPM

| SMILES | IC50 [1] [nM] | IC50 [2] [nM] | IC50 (BXPC-3) [nM] | IC50 (Capan-2) [nM] |
| --- | --- | --- | --- | --- |
| Cn1c(C(=O)N2CCN(C(=O)CCl)CC2)cc2ccc(Oc3cnc(-c4nc(-c5ccc(C(F)(F)F)cc5)no4)cn3)cc21 | > 1000 | – | – | – |
| COC(=O)Cn1c(C(=O)N2CCN(Cc3ccc(OCC(F)(F)F)cc3)CC2)cc2ccc(Oc3cnc(-c4nc(-c5ccc(C(F)(F)F)cc5)no4)cn3)cc21 | > 1000 | – | – | – |
| CCn1c(C(=O)N2CCN(Cc3ccc(OCC(F)(F)F)cc3)CC2)cc2ccc(Oc3cnc(-c4nc(-c5ccc(C(F)(F)F)cc5)no4)cn3)cc21 | 167 | – | – | – |
| COC(=O)CN1CCN(C(=O)c2cc3ccc(Oc4cnc(-c5nc(-c6ccc(C(F)(F)F)cc6)no5)cn4)cc3n2C)CC1 | > 1000 | – | – | – |
| O=C(c1cc2ccc(Oc3cnc(-c4nc(-c5ccc(C(F)(F)F)cc5)no4)cn3)cc2n1Cc1ccccc1)N1CCN(Cc2ccc(OCC(F)(F)F)cc2)CC1 | > 1000 | – | – | – |
| Cn1c(C(=O)N2CCN(C(=O)c3ccc(OCC(F)(F)F)cc3)CC2)cc2ccc(Oc3cnc(-c4nc(-c5ccc(C(F)(F)F)cc5)no4)cn3)cc21 | > 1000 | – | – | – |
| Cn1c(C(=O)N2CCN(Cc3ccc(C(F)(F)F)cc3)CC2)cc2ccc(Oc3cnc(-c4nc(-c5ccc(C(F)(F)F)cc5)no4)cn3)cc21 | 72.4 | 102 | – | – |
| CCCn1c(C(=O)N2CCN(Cc3ccc(OCC(F)(F)F)cc3)CC2)cc2ccc(Oc3cnc(-c4nc(-c5ccc(C(F)(F)F)cc5)no4)cn3)cc21 | 613 | – | – | – |
| Cn1c(C(=O)N2CCN(C(=O)c3ccc(C(F)(F)F)cc3)CC2)cc2ccc(Oc3cnc(-c4nc(-c5ccc(C(F)(F)F)cc5)no4)cn3)cc21 | > 1000 | – | – | – |
| Cn1c(C(=O)N2CCN(Cc3cccc(C(F)(F)F)c3)CC2)cc2ccc(Oc3cnc(-c4nc(-c5ccc(C(F)(F)F)cc5)no4)cn3)cc21 | > 1000 | – | – | – |
| Cn1c(C(=O)N2CCN(Cc3ccc(OCC(F)(F)F)c(F)c3)CC2)cc2ccc(Oc3cnc(-c4nc(-c5ccc(C(F)(F)F)cc5)no4)cn3)cc21 | 101 | 117 | – | – |
| CC(C)C(=O)n1c(C(=O)N2CCN(Cc3ccc(OCC(F)(F)F)cc3)CC2)cc2ccc(Oc3cnc(-c4nc(-c5ccc(C(F)(F)F)cc5)no4)cn3)cc21 | 337 | – | – | – |
| O=C(c1cc2ccc(Oc3cnc(-c4nc(-c5ccc(C(F)(F)F)cc5)no4)cn3)cc2[nH]1)N1CCN(Cc2ccc(OCC(F)(F)F)cc2)CC1 | 30.5 | 25 | – | – |
| CCCN1CCN(C(=O)c2cc3ccc(Oc4cnc(-c5nc(-c6ccc(C(F)(F)F)cc6)no5)cn4)cc3n2C)CC1 | 800 | – | – | – |
| CN1CCN(C(=O)c2cc3ccc(Oc4cnc(-c5nc(-c6ccc(C(F)(F)F)cc6)no5)cn4)cc3n2C)CC1 | > 1000 | – | – | – |
| COCCn1c(C(=O)N2CCN(Cc3ccc(OCC(F)(F)F)cc3)CC2)cc2ccc(Oc3cnc(-c4nc(-c5ccc(C(F)(F)F)cc5)no4)cn3)cc21 | 39.9 | 93.2 | – | – |
| Cn1c(C(=O)N2CCN(Cc3ccccc3OCC(F)(F)F)CC2)cc2ccc(Oc3cnc(-c4nc(-c5ccc(C(F)(F)F)cc5)no4)cn3)cc21 | > 1000 | – | – | – |
| Cn1c(C(=O)N2CCN(CCc3ccccc3)CC2)cc2ccc(Oc3cnc(-c4nc(-c5ccc(C(F)(F)F)cc5)no4)cn3)cc21 | 595 | – | – | – |
| CCN1CCN(C(=O)c2cc3ccc(Oc4cnc(-c5nc(-c6ccc(C(F)(F)F)cc6)no5)cn4)cc3n2C)CC1 | 1110 | 1.6 | 1.9 | 1 |
| C=CCn1c(C(=O)N2CCN(Cc3ccc(OCC(F)(F)F)cc3)CC2)cc2ccc(Oc3cnc(-c4nc(-c5ccc(C(F)(F)F)cc5)no4)cn3)cc21 | > 1000 | – | – | – |
| CCOC(=O)Cn1c(C(=O)N2CCN(Cc3ccc(OCC(F)(F)F)cc3)CC2)cc2ccc(Oc3cnc(-c4nc(-c5ccc(C(F)(F)F)cc5)no4)cn3)cc21 | > 1000 | – | – | – |

Continued, in another order:

| IC50 [1] [nM] | IC50 [2] [nM] | IC50 (BXPC-3) [nM] | SMILES | IC50 (Capan-2) [nM] |
| --- | --- | --- | --- | --- |
| 649 | – | – | Cn1c(C(=O)N2CCN(Cc3ccc(Cl)cc3)CC2)cc2ccc(Oc3cnc(-c4nc(-c5ccc(C(F)(F)F)cc5)no4)cn3)cc21 | – |
| 492 | – | – | Cc1ccc(CN2CCN(C(=O)c3cc4ccc(Oc5cnc(-c6nc(-c7ccc(C(F)(F)F)cc7)no6)cn5)cc4n3C)CC2)cc1 | – |
| 45.5 | 56.5 | 1.3 | COc1ccccc1-c1noc(-c2cnc(Oc3ccc4cc(C(=O)N5CCN(Cc6ccc(OCC(F)(F)F)cc6)CC5)n(C)c4c3)cn2)n1 | 8.6 |
| 28.1 | 14.3 | 2.7 | Cn1c(C(=O)N2CCN(Cc3ccc(OCC(F)(F)F)cc3)CC2)cc2ccc(Oc3cnc(-c4nc(-c5ccc(Br)cc5)no4)cn3)cc21 | 9.3 |
| 35.7 | 25.8 | 4.8 | Cn1c(C(=O)N2CCN(Cc3ccc(OCC(F)(F)F)cc3)CC2)cc2ccc(Oc3cnc(-c4nc(-c5ccc(Cl)cc5)no4)cn3)cc21 | 12.6 |
| 134 | – | – | COc1ccc(CN2CCN(C(=O)c3cc4ccc(Oc5cnc(-c6nc(-c7ccc(C(F)(F)F)cc7)no6)cn5)cc4n3C)CC2)cc1F | – |
| 63.6 | – | – | COc1ccc(CN2CCN(C(=O)c3cc4ccc(Oc5cnc(-c6nc(-c7ccc(C(F)(F)F)cc7)no6)cn5)cc4n3C)CC2)cc1 | – |
| 217 | – | – | Cn1c(C(=O)N2CCN(Cc3ccc(OCC(F)(F)F)cc3)CC2)cc2ccc(Oc3cnc(-c4nc(-c5ccccc5)no4)cn3)cc21 | – |
| 19.8 | 12.6 | 1.5 | COc1cccc(-c2noc(-c3cnc(Oc4ccc5cc(C(=O)N6CCN(Cc7ccc(OCC(F)(F)F)cc7)CC6)n(C)c5c4)cn3)n2)c1 | 6.5 |
| 13.1 | 16.5 | 1.7 | Cn1c(C(=O)N2CCN(Cc3ccc(OCC(F)(F)F)cc3)CC2)cc2ccc(Oc3cnc(-c4nc(-c5ccccc5F)no4)cn3)cc21 | 7.7 |
| > 1000 | – | – | Cn1c(C(=O)N2CCN(Cc3cccc(OCC(F)(F)F)c3)CC2)cc2ccc(Oc3cnc(-c4nc(-c5ccc(C(F)(F)F)cc5)no4)cn3)cc21 | – |
| 836 | – | – | Cn1c(C(=O)N2CCN(Cc3ccc(Br)cc3)CC2)cc2ccc(Oc3cnc(-c4nc(-c5ccc(C(F)(F)F)cc5)no4)cn3)cc21 | – |
| 22.3 | 32.5 | 3.3 | Cn1c(C(=O)N2CCN(Cc3ccc(OCC(F)(F)F)cc3)CC2)cc2ccc(Oc3cnc(-c4nc(-c5ccc(C(F)(F)F)cc5)no4)cn3)cc21 | 8.6 |
| 39.2 | 10.5 | 11.4 | Cn1c(C(=O)N2CCN(Cc3ccc(OCC(F)(F)F)cc3)CC2)cc2ccc(Oc3cnc(-c4nc(-c5ccc(OC(F)(F)F)cc5)no4)cn3)cc21 | 6.4 |
| > 1000 | – | – | Cc1cccc(CN2CCN(C(=O)c3cc4ccc(Oc5cnc(-c6nc(-c7ccc(C(F)(F)F)cc7)no6)cn5)cc4n3C)CC2)c1 | – |
| 76.1 | – | – | Cn1c(C(=O)N2CCN(Cc3ccc(OC(F)(F)F)cc3)CC2)cc2ccc(Oc3cnc(-c4nc(-c5ccc(C(F)(F)F)cc5)no4)cn3)cc21 | – |
| 38.3 | 19.9 | 1.9 | Cn1c(C(=O)N2CCN(Cc3ccc(OCC(F)(F)F)cc3)CC2)cc2ccc(Oc3cnc(-c4nc(-c5cccc(F)c5)no4)cn3)cc21 | 5 |
| 427 | – | – | Cn1c(C(=O)N2CCN(Cc3ccc(F)cc3)CC2)cc2ccc(Oc3cnc(-c4nc(-c5ccc(C(F)(F)F)cc5)no4)cn3)cc21 | – |
